Test results from US9796742B2, “Kinase inhibitors” (Respivert Limited, priority 2012, dated 2017).
Where two headings read alike, the source gives them in different places.

Tests used:
[1] = system: PBMCs; assay: LPS-induced TNFα/IL-8 release in PBMC cells; assay type: cell-based; conditions: Homo sapiens, LPS-stimulated PBMCs
Description: Peripheral blood mononuclear cells (PBMCs) from healthy subjects are separated from whole blood using a density gradient (Lymphoprep, Axis-Shield Healthcare). The PBMCs are seeded in 96 well plates and treated with compounds at the desired concentration for 2 hours before addition of 1 ng/mL LPS (Escherichia Coli 0111:B4 from Sigma Aldrich) for 24 hours under normal tissue culture conditions (37° C., 5% CO2). The supernatant is harvested for determination of IL-8 and TNFα concentrations by sandwich ELISA (Duo-set, R&D systems) and read on the fluorescence microplate reader (Varioskan® Flash, ThermoFisher Scientific). The concentration at 50% inhibition (IC50) of IL-8 and TNFα production is calculated from the dose response curve.

[2] = target: GSK3α (Homo sapiens (Human), UniProt P49840); assay: GSK 3α enzyme inhibition (FRET, Z-LYTE; Method 2); assay type: biochemical
Chain of GSK3α (P49840 whole entry): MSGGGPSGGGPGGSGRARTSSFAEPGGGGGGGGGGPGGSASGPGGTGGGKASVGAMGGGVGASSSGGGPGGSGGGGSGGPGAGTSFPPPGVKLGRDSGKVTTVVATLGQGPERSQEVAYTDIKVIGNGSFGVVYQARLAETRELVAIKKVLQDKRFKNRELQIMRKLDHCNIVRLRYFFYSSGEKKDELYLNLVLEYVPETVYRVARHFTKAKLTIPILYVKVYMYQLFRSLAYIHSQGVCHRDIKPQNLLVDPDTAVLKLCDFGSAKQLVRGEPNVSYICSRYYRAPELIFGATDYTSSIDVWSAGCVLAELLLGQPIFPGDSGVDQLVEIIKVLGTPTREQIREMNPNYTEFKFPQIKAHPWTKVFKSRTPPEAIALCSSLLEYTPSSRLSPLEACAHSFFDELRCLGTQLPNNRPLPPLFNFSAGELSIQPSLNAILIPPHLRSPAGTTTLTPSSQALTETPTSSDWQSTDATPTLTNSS
Description: The enzyme inhibitory activities of compounds disclosed herein are determined by FRET using synthetic peptides labelled with both donor and acceptor fluorophores (Z-LYTE, Invitrogen Ltd., Paisley, UK).
The inhibitory activities of compounds of the invention against the GSK 3α enzyme isoform (Invitrogen), are evaluated by determining the level of activation/phosphorylation of the target peptide. The GSK3-α protein (500 ng/mL, 2.5 μL) is mixed with the test compound (2.5 μL at either 4 μg/mL, 0.4 μg/mL, 0.04 μg/mL, or 0.004 μg/mL) for 2 hr at RT. The FRET peptide (8 μM, 2.5 μL), which is a phosphorylation target for GSK3α, and ATP (40 μM, 2.5 μL) are then added to the enzyme/compound mixture and the resulting mixture incubated for 1 hr. Development reagent (protease, 5 μL) is added for 1 hr prior to detection in a fluorescence microplate reader (Varioskan® Flash, ThermoFisher Scientific).
In all cases, the site-specific protease cleaves non-phosphorylated peptide only and eliminates the FRET signal. Phosphorylation levels of each reaction are calculated using the ratio of coumarin emission (donor) over fluorescein emission (acceptor), for which high ratios indicate high phosphorylation and low ratios indicate low phosphorylation levels. The percentage inhibition of each reaction is calculated relative to non-inhibited control and the 50% inhibitory concentration (IC50 value) is then calculated from the concentration-response curve.
This method follows the same steps as Method 1 above, but utilises a shorter period of mixing of the test compound (105 minutes instead of 2 hours) with the GSK3-α protein.

[3] = IL-8, read-out: IC50 Values for Inhibition of Cytokine Release, PBMCs IL-8
[4] = TNFα, read-out: IC50 Values for Inhibition of Cytokine Release, PBMCs TNFα

Row | Structure (SMILES) | IC50 [1, 3] | IC50 [1, 4] | IC50 [2]
1 | C[Si](C)(C)c1cc(NC(=O)Nc2ccc(Oc3ccnc(Nc4ccccc4)n3)c3ccccc23)n(-c2ccc(P(C)(C)=O)cc2)n1 [Example 5, 1-(1-(4-(Dimethylphosphoryl)phenyl)-3-(trimethylsilyl)-1H-pyrazol-5-yl)-3-(4-((2-(phenyl-amino)pyrimidin-4-yl)oxy)naphthalen-1-yl)urea] | 16.3 nM | 4.3 nM | 429 nM
2 | CC(C)(C)c1cc(NC(=O)Nc2ccc(Oc3ccnc(Nc4ccccc4)n3)c3ccccc23)n(-c2ccc(CP(C)(C)=O)cc2)n1 [Example 6, 1-(3-(tert-Butyl)-1-(4-((dimethylphosphoryl)methyl)phenyl)-1H-pyrazol-5-yl)-3-(4-((2-(phenylamino)pyrimidin-4-yl)oxy)naphthalen-1-yl)urea] | 6.4 nM | 2.5 nM | 183 nM
3 | CC(C)(C)c1cc(NC(=O)Nc2ccc(Oc3ccnc(Nc4ccc5[nH]ncc5c4)n3)c3ccccc23)n(-c2ccc(P(C)(C)=O)cc2)n1 [Example 7, 1-(4-((2-((1H-Indazol-5-yl)amino)pyrimidin-4-yl)oxy)naphthalen-1-yl)-3-(3-(tert-butyl)-1-(4-(dimethylphosphoryl)phenyl)-1H-pyrazol-5-yl)urea] | 6.7 nM | 2.5 nM | 486 nM
4 | CC(C)(C)c1cc(NC(=O)Nc2ccc(Oc3ccnc(Nc4ccccc4)n3)c3ccccc23)n(-c2ccc(P3(=O)CCCC3)cc2)n1 [Example 8, 1-(3-(tert-Butyl)-1-(4-(1-oxidophospholan-1-yl)phenyl)-1H-pyrazol-5-yl)-3-(4-((2-(phenylamino)pyrimidin-4-yl)oxy)naphthalen-1-yl)urea] | 17.2 nM | 4.8 nM | 849 nM
5 | CCOP(C)(=O)c1ccc(-n2nc(C(C)(C)C)cc2NC(=O)Nc2ccc(Oc3ccnc(Nc4ccccc4)n3)c3ccccc23)cc1 (centres unmarked) [Example 9, Ethyl (4-(3-(tert-butyl)-5-(3-(4-((2-(phenylamino)pyrimidin-4-yl)oxy)naphthalen-1-yl)-ureido)-1H-pyrazol-1-yl)phenyl)(methyl)phosphinate] | 24 nM | 6.2 nM | 1440 nM
6 | CC(C)(C)c1cc(NC(=O)Nc2ccc(Oc3ccnc(Nc4ccc5[nH]ncc5c4)n3)c3ccccc23)n(-c2cccc(P(C)(C)=O)c2)n1 [Example 10, 1-(4-((2-((1H-Indazol-5-yl)amino)pyrimidin-4-yl)oxy)naphthalen-1-yl)-3-(3-(tert-butyl)-1-(3-(dimethylphosphoryl)phenyl)-1H-pyrazol-5-yl)urea] | 13.7 nM | 4 nM | 684 nM
7 | CC(C)(C)c1cc(NC(=O)Nc2ccc(Oc3ccnc(Nc4ccc5c(c4)NC(=O)C5)n3)c3ccccc23)n(-c2cccc(P(C)(C)=O)c2)n1 [Example 11] | 16.2 nM | 2.7 nM | 205 nM
8 | CC(C)(C)c1cc(NC(=O)Nc2ccc(Oc3ccnc(Nc4ccc5onc(N)c5c4)n3)c3ccccc23)n(-c2cccc(P(C)(C)=O)c2)n1 [Example 12] | 8.5 nM | 1.8 nM | 73 nM
9 | Cc1cc(Nc2nccc(Oc3ccc(NC(=O)Nc4cc(C(C)(C)C)nn4-c4cccc(P(C)(C)=O)c4)c4ccccc34)n2)cc2cn[nH]c12 [Example 13, 1-(3-(tert-Butyl)-1-(3-(dimethylphosphoryl)phenyl)-1H-pyrazol-5-yl)-3-(4-((2-((7-methyl-1H-indazol-5-yl)amino)pyrimidin-4-yl)oxy)naphthalen-1-yl)urea] | 3.4 nM | 1.7 nM | 208 nM
10 | CC(C)(C)c1cc(NC(=O)Nc2ccc(Oc3ccnc(Nc4ccc5c(c4)NC(=O)C5)n3)c3ccccc23)n(-c2ccc(P(C)(C)=O)cc2)n1 [Example 14, 1-(3-(tert-Butyl)-1-(4-(dimethylphosphoryl)phenyl)-1H-pyrazol-5-yl)-3-(4-((2-((2-oxoindolin-6-yl)amino)pyrimidin-4-yl)oxy)naphthalen-1-yl)urea] | 13.2 nM | 4 nM | 294 nM
11 | CC(C)(C)c1cc(NC(=O)Nc2ccc(Oc3ccnc(Nc4cccc(C(=O)NCCN5CCOCC5)c4)n3)c3ccccc23)n(-c2cccc(P(C)(C)=O)c2)n1 [Example 16, 3-((4-((4-(3-(3-(tert-Butyl)-1-(3-(dimethylphosphoryl)phenyl)-1H-pyrazol-5-yl)ureido)-naphthalen-1-yl)oxy)pyrimidin-2-yl)amino)-N-(2-morpholinoethyl)benzamide] | 8.3 nM | 4.3 nM | 72 nM
12 | CC(C)(C)c1cc(NC(=O)Nc2ccc(Oc3ccnc(Nc4cccc(OCCN5CCOCC5)c4)n3)c3ccccc23)n(-c2ccc(P(C)(C)=O)cc2)n1 [Example 17, 1-(3-(tert-Butyl)-1-(4-(dimethylphosphoryl)phenyl)-1H-pyrazol-5-yl)-3-(4-((2-((3-(2-morpholinoethoxy)phenyl)amino)pyrimidin-4-yl)oxy)naphthalen-1-yl)urea] | 5.4 nM | 1.8 nM | 74 nM
13 | CC(C)(C)c1cc(NC(=O)Nc2ccc(Oc3ccnc(Nc4ccc(SCCO)cc4)n3)c3ccccc23)n(-c2ccc(P(C)(C)=O)cc2)n1 [Example 18, 1-(3-(tert-Butyl)-1-(4-(dimethylphosphoryl)phenyl)-1H-pyrazol-5-yl)-3-(4-((2-((4-((2-hydroxyethyl)thio)phenyl)amino)pyrimidin-4-yl)oxy)naphthalen-1-yl)urea] | 7.2 nM | 2.9 nM | 168 nM
14 | CC(C)(C)c1cc(NC(=O)Nc2ccc(Oc3ccnc(Nc4ccccc4)n3)c3ccccc23)n(-c2ccc(P(C)(=O)O)cc2)n1 [Example 19, (4-(3-(tert-Butyl)-5-(3-(4-((2-(phenylamino)pyrimidin-4-yl)oxy)naphthalen-1-yl)ureido)-1H-pyrazol-1-yl)phenyl)(methyl)phosphinic acid] | 407 nM | – | 76 nM
15 | CC(C)(C)c1cc(NC(=O)Nc2ccc(Oc3ccnc(Nc4ccc5onc(N)c5c4)n3)c3ccccc23)n(-c2ccc(P(C)(C)=O)cc2)n1 [Example 20, 1-(4-((2-((3-Aminobenzo[d]isoxazol-5-yl)amino)pyrimidin-4-yl)oxy)naphthalen-1-yl)-3-(3-(tert-butyl)-1-(4-(dimethylphosphoryl)phenyl)-1H-pyrazol-5-yl)urea] | 9 nM | – | 68 nM
16 | CC(C)(C)c1cc(NC(=O)Nc2ccc(Oc3ccnc(Nc4cccc(C(=O)NCCN5CCOCC5)c4)n3)c3ccccc23)n(-c2ccc(P(C)(C)=O)cc2)n1 [Example 24, 3-((4-((4-(3-(3-(tert-Butyl)-1-(4-(dimethylphosphoryl)phenyl)-1H-pyrazol-5-yl)ureido)-naphthalen-1-yl)oxy)pyrimidin-2-yl)amino)-N-(2-morpholinoethyl)benzamide] | 26.3 nM | – | 293 nM
17 | CC(C)(C)c1cc(NC(=O)Nc2ccc(Oc3ccnc(Nc4ccc(P(C)(C)=O)cc4)n3)c3ccccc23)n(-c2ccc(P(C)(C)=O)cc2)n1 [Example 25, 1-(3-(tert-Butyl)-1-(4-(dimethylphosphoryl)phenyl)-1H-pyrazol-5-yl)-3-(4-((2-((4-(dimethyl-phosphoryl)phenyl)amino)pyrimidin-4-yl)oxy)naphthalen-1-yl)urea] | 14.4 nM | – | 163 nM
18 | CC(C)(C)c1cc(NC(=O)Nc2ccc(Oc3ccnc(N4CCC[C@H]4CO)n3)c3ccccc23)n(-c2ccc(P(C)(C)=O)cc2)n1 [Example 26, (S)-1-(3-(tert-Butyl)-1-(4-(dimethylphosphoryl)phenyl)-1H-pyrazol-5-yl)-3-(4-((2-(2-(hydroxymethyl)pyrrolidin-1-yl)pyrimidin-4-yl)oxy)naphthalen-1-yl)urea] | 189 nM | – | 8130 nM
19 | CC(C)(C)c1cc(NC(=O)Nc2ccc(Oc3ccnc(N4CCC[C@@H]4CO)n3)c3ccccc23)n(-c2ccc(P(C)(C)=O)cc2)n1 [Example 27, (R)-1-(3-(tert-Butyl)-1-(4-(dimethylphosphoryl)phenyl)-1H-pyrazol-5-yl)-3-(4-((2-(2-(hydroxymethyl)pyrrolidin-1-yl)pyrimidin-4-yl)oxy)naphthalen-1-yl)urea] | 209 nM | – | 979 nM
20 | CC(C)(C)c1cc(NC(=O)Nc2ccc(Oc3ccnc(NCCCO)n3)c3ccccc23)n(-c2ccc(P(C)(C)=O)cc2)n1 [Example 31, 1-(3-(tert-Butyl)-1-(4-(dimethylphosphoryl)phenyl)-1H-pyrazol-5-yl)-3-(4-((2-((3-hydroxy-propyl)amino)pyrimidin-4-yl)oxy)naphthalen-1-yl)urea] | 90.2 nM | – | 211 nM
